Key:
Huvec = assay: MTT cytotoxicity assay, Huvec (normal cells); type: cell-based; details: 72 h, Huvec normal human cell line
Description: (§1) Compounds 1–5 were tested for their cytotoxic activities against different normal and tumor human cell lines, the MTT assay was used to assess cytotoxicity as described previously. Briefly, different tumor cells and normal cells were seeded onto 96-well plates at the appropriate density and allowed to attach overnight. Drugs at various concentrations were added to the culture medium and cells were cultured for another 68 h at 37 °C. MTT (5 mg/mL, 20 μL/well) was then added to the wells for additional 4 h, and the medium was discarded before 150 μL of DMSO was added to dissolve the MTT-formazan crystals. Absorbance was measured at 540 nm, with background subtraction at 670 nm using Model 550 Microplate Reader (Bio-Rad, Hercules, CA, USA). The Bliss method was used to calculate the half maximal (50%) inhibitory concentration (IC50) values. Data represent the mean ± SD of at least three independent experiments.

RBE = assay: MTT cytotoxicity assay, RBE; type: cell-based, human; details: 72 h
Description: as §1

MCF-7 = assay: MTT cytotoxicity assay, MCF-7; type: cell-based, human
Description: as §1

A549 = assay: MTT cytotoxicity assay, A549; type: cell-based, human; details: A549, 72 h
Description: as §1

NCM-460 = assay: MTT cytotoxicity assay, NCM-460 (normal cells); type: cell-based; details: 72 h
Description: as §1

BT-549 = assay: MTT cytotoxicity assay, BT-549; type: cell-based, human; details: BT-549, 72 h
Description: as §1

[1] = test system: MCF-7, BT-549, RBE and A549; NCM-46 and Huvec; assay: MTT cytotoxicity, whole panel of cell lines; type: cell-based; details: four human cancer and two normal human cell lines
Description: as §1

Eimeria tenella = assay: In vitro anticoccidial activity (qPCR); type: cell-based; details: 48 h
Description: The number of Eimeria tenella spores and the cells were seeded in a 24-well plate at a ratio of 1:1 and incubated for 6 h, and the medium was discarded and washed with PBS three times. Then, 500 μL of medium was added to each well, followed by the addition of the medium containing the compounds, the blank control group (no spores and no compounds) and positive control group (with spores but no compound) were set, and 10 μM of sulfaclozinium chloride sodium served as a control drug, and three replicates were set up. The culture remained in an incubator containing 5% CO2 at 38 °C for 48 h. After 48 h, the medium was discarded and washed with PBS three times, and the total RNA of each well was extracted and reverse-transcribed into cDNA. qPCR was used to detect the effects of the compounds on the growth and development of E. tenella.

[2] = test system: Eimeria tenella infections; set-up: method as in PMID 7451360; details: animal experiments; cited from earlier work
fungi = test system: fungi; set-up: method as in PMID 19798499; details: cited from earlier work
[3] = Homo sapiens, MCF7, MCF-7, 72 h
[4] = NCM460, NCM-460 normal human cell line

IC50 (Eimeria tenella; Eimeria tenella, read-out: anti-E. tenella activity IC50) | SMILES | IC50 (Huvec; Homo sapiens, HUVEC) | IC50 (RBE; Homo sapiens) | IC50 (MCF-7; [3]) | IC50 (A549; Homo sapiens) | IC50 (NCM-460; [4]) | IC50 (BT-549; Homo sapiens) | IC50 (Huvec) | IC50 (RBE) | IC50 (MCF-7; MCF-7, 72 h) | IC50 (A549) | IC50 (NCM-460; NCM-460 normal human cell line) | IC50 (BT-549) | cytotoxic effects against the tested cell lines [1] | in vitro anti-E. tenella bioactivity (Eimeria tenella) | protective activity against Eimeria tenella infections [2] | antifungal activity (fungi)
 | COc1cccc2c1C(=O)c1c(O)c3c(c(O)c1C2=O)C[C@@](O)(C(=O)CO)C[C@@H]3O[C@H]1C[C@H](N)[C@H](O)[C@H](C)O1 [Adriamycin, reference compound] | 3.87 µM | 3.62 µM | 2.96 µM | 4.62 µM | 3.24 µM | 6.42 µM |  |  |  |  |  |  |  |  |  | 
 | N.N.[Cl][Pt][Cl] [Cisplatin, reference compound] |  |  |  |  |  |  | 5.26 µM | 4.26 µM | 4.49 µM | 9.34 µM | 19 µM | 14.2 µM |  |  |  | 
 | CCOC(=O)c1cc(C)cc(OC)c1C1=C(O)C(=O)c2c(O)cccc2C1=O [Compound 1, WS-5995 E] | > 50 µM | > 50 µM | > 50 µM | > 50 µM | > 50 µM | > 50 µM |  |  |  |  |  |  | did not exhibit cytotoxic effects | only exhibited activity at high concentrations |  | 
2.21 µM | COc1cc(C)cc2c(=O)oc3c(c12)C(=O)c1cccc(O)c1C3=O [Compound 2, WS-5995A] | 31.2 µM | 21.4 µM | > 50 µM | > 50 µM | 40.8 µM | > 50 µM |  |  |  |  |  |  |  | significant anticoccidial activity | excellent protective activity | 
 | COc1cc(C)cc(C(=O)O)c1C1=CC(=O)c2c(O)cccc2C1=O [Compound 3, WS-5995B] | 7.67 µM | 16.8 µM | 19.6 µM | > 50 µM | 18.5 µM | 5.97 µM |  |  |  |  |  |  |  |  | excellent protective activity | antifungal activity
 | COc1cc(C)cc(C(=O)O)c1C1=C(O)C(=O)c2c(O)cccc2C1=O [Compound 4, WS-5995C] | > 50 µM | > 50 µM | > 50 µM | > 50 µM | > 50 µM | > 50 µM |  |  |  |  |  |  | did not exhibit cytotoxic effects | not active |  | 
 | COC(=O)c1cc(C)cc(OC)c1C1=C(O)C(=O)c2c(O)cccc2C1=O [Compound 5, WS-5995D] | > 50 µM | > 50 µM | > 50 µM | > 50 µM | > 50 µM | > 50 µM |  |  |  |  |  |  | did not exhibit cytotoxic effects | only exhibited activity at high concentrations |  | 

Reference: article PMC11122949, “Metabolic Blockade-Based Genome Mining of Sea Anemone-Associated Streptomyces sp. S1502 Identifies Atypical Angucyclines WS-5995 A–E: Isolation, Identification, Biosynthetic Investigation, and Bioactivities” (Marine Drugs, 2024)
